ChEMBL document CHEMBL1147499, “Chain-branched 1,3-dibenzylthioureas as vanilloid receptor 1 antagonists” (Bioorg Med Chem Lett, 2004)
pEC50, pIC50: −log10 of the molar value.

Experiments:
Rattus norvegicus [1] = organism: Rattus norvegicus; test: Effective concentration of compound to induce 45 [Ca2+] influx in neonatal rat cultured spinal sensory neurons; assay type: functional
Rattus norvegicus [2] = organism: Rattus norvegicus; test: Inhibitory concentration of compound against 45 [Ca2+] influx in neonatal rat cultured spinal sensory neurons; assay type: functional

pEC50 (Rattus norvegicus [1]) | pIC50 (Rattus norvegicus [2]) | Compound
< 4.00 | 5.44 | CC(=O)Nc1ccc([C@@H](C)/N=C(\S)NCc2ccc(C(C)(C)C)cc2)cc1
< 4.00 | 6.44 | CCC(/N=C(\S)NCc1ccc(C(C)(C)C)cc1)c1ccc(NS(C)(=O)=O)cc1 (centres undefined)
< 4.00 |  | CC(C)(C)c1ccc(CNC(=S)NCc2ccc(NS(C)(=O)=O)cc2)cc1
< 4.00 | 5.83 | C[C@H](/N=C(\S)NCc1ccc(C(C)(C)C)cc1)c1ccc(NS(C)(=O)=O)cc1
< 4.00 | 4.78 | CC(C)(C)c1ccc(C/N=C(\S)NC(c2ccccc2)c2ccc(NS(C)(=O)=O)cc2)cc1 (centres undefined)
< 4.00 | 4.59 | C[C@H](/N=C(\S)NCc1ccc(C(C)(C)C)cc1)c1ccccc1
< 4.00 | 5.49 | CC(C)C(/N=C(\S)NCc1ccc(C(C)(C)C)cc1)c1ccc(NS(C)(=O)=O)cc1 (centres undefined)
< 4.00 | 5.48 | C[C@@H](/N=C(\S)NCc1ccc(C(C)(C)C)cc1)c1ccc(N)cc1
< 4.00 | 6.24 | C[C@@H](/N=C(\S)NCc1ccc(C(C)(C)C)cc1)c1ccc([N+](=O)[O-])cc1
< 4.00 | 4.83 | C[C@H](/N=C(\S)NCc1ccc(C(C)(C)C)cc1)c1ccc([N+](=O)[O-])cc1
< 4.00 | 5.83 | CCCC(/N=C(\S)NCc1ccc(C(C)(C)C)cc1)c1ccc(NS(C)(=O)=O)cc1 (centres undefined)
< 4.00 | 7.30 | CC[C@@H](/N=C(\S)NCc1ccc(C(C)(C)C)cc1)c1ccc(NS(C)(=O)=O)cc1
< 4.00 | 5.46 | C[C@@H](/N=C(\S)NCc1ccc(C(C)(C)C)cc1)c1ccc(C(C)(C)C)cc1
< 4.00 | 7.30 | C[C@@H](NC(=S)NCc1ccc(C(C)(C)C)cc1)c1ccc(NS(C)(=O)=O)cc1
< 4.00 | 5.30 | C[C@@H](/N=C(\S)NCc1ccc(C(C)(C)C)cc1)c1ccccc1
< 4.00 |  | Oc1cc2c(cc1O)CN(C(=S)NCCc1ccc(Cl)cc1)CCC2 [CAPSAZEPINE]
< 4.00 | 6.40 | Cc1ccc(C(C)/N=C(\S)NCc2ccc(C(C)(C)C)cc2)cc1 (centres undefined)
< 4.00 | 6.82 | CC(/N=C(\S)NCc1ccc(C(C)(C)C)cc1)c1ccc(NS(C)(=O)=O)cc1 (centres undefined)
